Source: US20250017906A1, “COMPOUNDS FOR USE IN TREATING GASTRIC CANCER” (BPGBio, Inc., priority 2021, published 2025)
“Also recorded” adds a separate entry of the source.

Assays:
SNU5 tumors = assay: Gastric carcinoma xenograft model: SNU-5 tumors in nude mice, tumor growth inhibition; format: in vivo; settings: SNU-5 xenograft
Procedure: SNU-5 is derived from ascites of a patient with poorly differentiated carcinoma of the stomach. The patient had previously received chemotherapy including 5-fluorouracil, doxorubicin and mitomycin-C. This cell line is derived from metastatic site, ascites.
SNU-5 cell lines were implanted subcutaneously in nude mice. Tumors were allowed to grow. Once the average tumor volume reached the volume of 122 mm3, animals were randomized into three groups of vehicle control, 75 mg/kg and 150 mg/kg 2-(difluoromethoxy)-N-[[5-(2-methoxyphenyl)-1H-1,2,4-triazol-3-yl]methyl]benzamide with 12 animals per group. Methocel E3 Premium LV in Milli-Q water was used for vehicle control. A solid dispersion of 2-(difluoromethoxy)-N-[[5-(2-methoxyphenyl)-1H-1,2,4-triazol-3-yl]methyl]benzamide was prepared prior to each dosing in Milli-Q water. 2-(difluoromethoxy)-N-[[5-(2-methoxyphenyl)-1H-1,2,4-triazol-3-yl]methyl]benzamide was administered by oral gavage two times a day (BID). In this study there were 12 animals per each group. […] Animals that left the study prior to day 23 were eliminated from all calculations. The percentage of tumor growth inhibition (TGI %) was calculated for each individual tumor. The mean tumor volume of each group over time and the growth of tumor in each individual animal is plotted below. For each individual animal of vehicle group TGI % was calculated based on the tumor growth inhibition of individual tumor at each given day of the study compared to the average of the group for that given day of the study. The P value was calculated for each group that was treated with 2-(difluoromethoxy)-N-[[5-(2-methoxyphenyl)-1H-1,2,4-triazol-3-yl]methyl]benzamide for each given day of the study by comparing the TGI of that day to the TGI of the vehicle group. This P value is different than what is provided in the CRO report which is the P value related to tumor volume not TGI %. P value was calculated by excel program using two-tailed distribution and two-sample equal variance (homoscedastic). ns P>0.05; * P<0.05; ** P<0.01; *** P<0.001; **** P<0.0001.

[1] = tested on: cyclin B1 and phosphor histone H3; assay: Level of cyclin B1 and phospho histone H3 in SNU-5 xenograft tumors; format: in vivo, nude mice; settings: 75 and 150 mg/kg (FIG. 4)
UBE2K = target: T1, UBE2K (Homo sapiens, UniProt P61086); settings: poly-ubiquitination assays, FIG. 2 of U.S. Pat. No. 11,091,447; cited from earlier work
T1 sequence (P61086 1-200): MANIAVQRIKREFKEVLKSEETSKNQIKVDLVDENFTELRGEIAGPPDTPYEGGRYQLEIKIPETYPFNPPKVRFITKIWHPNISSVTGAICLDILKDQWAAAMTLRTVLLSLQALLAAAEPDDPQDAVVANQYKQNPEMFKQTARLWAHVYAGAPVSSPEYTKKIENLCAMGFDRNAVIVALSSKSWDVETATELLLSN

[2] = tested on: cyclin B1(CCNB1) and phospho histone H3(pHH3); assay: Level of cyclin B1 and phospho histone H3 in HS746T xenograft tumors; format: in vivo, nude mice; settings: 75-150 mg/kg (FIG. 2)
HS746T tumors = assay: Gastric carcinoma xenograft model: Hs 746T tumors in nude mice, tumor growth inhibition; format: in vivo; settings: for % Tumor Growth Inhibition (% TGI) / tumor growth inhibition, mixed effect linear model of the tumor volumes on the last day of study: HS746T xenograft
Procedure: Hs 746T cell line is a gastric carcinoma epithelial cell type from stomach that were isolated from the metastatic site of left leg muscle. Hs 746T cell lines were implanted subcutaneously in nude mice. Tumors were allowed to grow. Once the average tumor volume reached the volume of 120 mm3, animals were randomized into four groups of vehicle control, 75 mg/kg, 100 mg/kg, and 150 mg/kg 2-(difluoromethoxy)-N-[[5-(2-methoxyphenyl)-1H-1,2,4-triazol-3-yl]methyl]benzamide with 10 animals per group. Methocel E3 Premium LV with 2% labrasol in Milli-Q water was used for vehicle control. 2-(difluoromethoxy)-N-[[5-(2-methoxyphenyl)-1H-1,2,4-triazol-3-yl]methyl]benzamide was prepared prior to each dosing in 2% labrasol dissolved in Milli-Q water. 2-(difluoromethoxy)-N-[[5-(2-methoxyphenyl)-1H-1,2,4-triazol-3-yl]methyl]benzamide was administered by oral gavage two times a day (BID). In this study there were 10 animals per each group. […] The mean tumor volume of each group over time and the growth of tumor in each individual animal is plotted below. For each individual animal of vehicle group TGI % was calculated based on the tumor growth inhibition of individual tumor at each given day of the study compared to the average of the group for that given day of the study. The P value was calculated for each group that was treated with 2-(difluoromethoxy)-N-[[5-(2-methoxyphenyl)-1H-1,2,4-triazol-3-yl]methyl]benzamide for each given day of the study by comparing the TGI of that day to the TGI of the vehicle group. This P value is different than what is provided in the CRO report which is the P value related to tumor volume not TGI %. P value was calculated by excel program using two-tailed distribution and two-sample equal variance (homoscedastic). ns P>0.05; * P<0.05; ** P<0.01; *** P<0.001; **** P<0.0001.

[3] = Tolerability (body weight, survival) in SNU-5 xenograft study; format: in vivo; settings: oral BID, solid dispersion
Procedure: SNU-5 cell lines were implanted subcutaneously in nude mice. Tumors were allowed to grow. Once the average tumor volume reached the volume of 122 mm3, animals were randomized into three groups of vehicle control, 75 mg/kg and 150 mg/kg 2-(difluoromethoxy)-N-[[5-(2-methoxyphenyl)-1H-1,2,4-triazol-3-yl]methyl]benzamide with 12 animals per group. Methocel E3 Premium LV in Milli-Q water was used for vehicle control. A solid dispersion of 2-(difluoromethoxy)-N-[[5-(2-methoxyphenyl)-1H-1,2,4-triazol-3-yl]methyl]benzamide was prepared prior to each dosing in Milli-Q water. […] The percentage of tumor growth inhibition (TGI %) was calculated for each individual tumor. […] For each individual animal of vehicle group TGI % was calculated based on the tumor growth inhibition of individual tumor at each given day of the study compared to the average of the group for that given day of the study. The P value was calculated for each group that was treated with 2-(difluoromethoxy)-N-[[5-(2-methoxyphenyl)-1H-1,2,4-triazol-3-yl]methyl]benzamide for each given day of the study by comparing the TGI of that day to the TGI of the vehicle group. […] P value was calculated by excel program using two-tailed distribution and two-sample equal variance (homoscedastic). ns P>0.05; * P<0.05; ** P<0.01; *** P<0.001; **** P<0.0001.

[4] = Tolerability (body weight, survival) in HS746T xenograft study; format: in vivo; settings: HS746T xenograft, 75, 100 and 150 mg/kg oral BID, 15 days
Procedure: Hs 746T cell line is a gastric carcinoma epithelial cell type from stomach that were isolated from the metastatic site of left leg muscle. Hs 746T cell lines were implanted subcutaneously in nude mice. Tumors were allowed to grow. Once the average tumor volume reached the volume of 120 mm3, animals were randomized into four groups of vehicle control, 75 mg/kg, 100 mg/kg, and 150 mg/kg 2-(difluoromethoxy)-N-[[5-(2-methoxyphenyl)-1H-1,2,4-triazol-3-yl]methyl]benzamide with 10 animals per group. Methocel E3 Premium LV with 2% labrasol in Milli-Q water was used for vehicle control. 2-(difluoromethoxy)-N-[[5-(2-methoxyphenyl)-1H-1,2,4-triazol-3-yl]methyl]benzamide was prepared prior to each dosing in 2% labrasol dissolved in Milli-Q water. […] For each individual animal of vehicle group TGI % was calculated based on the tumor growth inhibition of individual tumor at each given day of the study compared to the average of the group for that given day of the study. The P value was calculated for each group that was treated with 2-(difluoromethoxy)-N-[[5-(2-methoxyphenyl)-1H-1,2,4-triazol-3-yl]methyl]benzamide for each given day of the study by comparing the TGI of that day to the TGI of the vehicle group. […] P value was calculated by excel program using two-tailed distribution and two-sample equal variance (homoscedastic). ns P>0.05; * P<0.05; ** P<0.01; *** P<0.001; **** P<0.0001.

COc1ccccc1-c1nc(CNC(=O)c2ccccc2OC(F)F)n[nH]1 [2-(difluoromethoxy)-N-[[5-(2-methoxyphenyl)-1H-1,2,4-triazol-3-yl]methyl]benzamide]
% Tumor Growth Inhibition (% TGI) (SNU5 tumors; 75 mg/kg oral BID, day 2): 79%
% Tumor Growth Inhibition (% TGI) (SNU5 tumors; 75 mg/kg oral BID, day 5): 41%
% Tumor Growth Inhibition (% TGI) (SNU5 tumors; 75 mg/kg oral BID, day 7): 36%
% Tumor Growth Inhibition (% TGI) (SNU5 tumors; 75 mg/kg oral BID, day 9): 49%
% Tumor Growth Inhibition (% TGI) (SNU5 tumors; 75 mg/kg oral BID, day 12): 51%
% Tumor Growth Inhibition (% TGI) (SNU5 tumors; 75 mg/kg oral BID, day 14): 47%
% Tumor Growth Inhibition (% TGI) (SNU5 tumors; 75 mg/kg oral BID, day 16): 56%
% Tumor Growth Inhibition (% TGI) (SNU5 tumors; 75 mg/kg oral BID, day 19): 47%
% Tumor Growth Inhibition (% TGI) (SNU5 tumors; 75 mg/kg oral BID, day 21): 40%
tumor growth inhibition (SNU5 tumors; 150 mg/kg oral BID (FIG. 3)): 64%
% Tumor Growth Inhibition (% TGI) (SNU5 tumors; 150 mg/kg oral BID, day 2): 129%
% Tumor Growth Inhibition (% TGI) (SNU5 tumors; 150 mg/kg oral BID, day 5): 70%
% Tumor Growth Inhibition (% TGI) (SNU5 tumors; 150 mg/kg oral BID, day 7): 58%
% Tumor Growth Inhibition (% TGI) (SNU5 tumors; 150 mg/kg oral BID, day 9): 64%
% Tumor Growth Inhibition (% TGI) (SNU5 tumors; 150 mg/kg oral BID, day 12): 63%
% Tumor Growth Inhibition (% TGI) (SNU5 tumors; 150 mg/kg oral BID, day 14): 54%
% Tumor Growth Inhibition (% TGI) (SNU5 tumors; 150 mg/kg oral BID, day 16): 64%
% Tumor Growth Inhibition (% TGI) (SNU5 tumors; 150 mg/kg oral BID, day 19): 52%
% Tumor Growth Inhibition (% TGI) (SNU5 tumors; 150 mg/kg oral BID, day 21): 49%
cyclin B1 in tumor tissues [1]: dose dependent increase; also recorded: dose-dependent increase
phosphor histone H3 in tumor tissues [1]: dose dependent increase; also recorded: dose-dependent increase
effect on mono-ubiquitinated UBE2K (UBE2K): stabilize mono-ubiquitinated UBE2K
cyclinB1 in tumor tissues [2]: dose-dependent increase
phosphor histone H3 in tumor tissues [2]: dose-dependent increase
HS746T tumor growth inhibition (TGI) (HS746T tumors; 150 mg/kg in nude mice (summary, FIG. 1)): more than 70%
% Tumor Growth Inhibition (% TGI) (HS746T tumors; 75 mg/kg oral BID, day 3): 47.2%
% Tumor Growth Inhibition (% TGI) (HS746T tumors; 75 mg/kg oral BID, day 5): 45.9%
% Tumor Growth Inhibition (% TGI) (HS746T tumors; 75 mg/kg oral BID, day 8): 46.3%
% Tumor Growth Inhibition (% TGI) (HS746T tumors; 75 mg/kg oral BID, day 10): 46.3%
% Tumor Growth Inhibition (% TGI) (HS746T tumors; 75 mg/kg oral BID, day 12): 36.8%
% Tumor Growth Inhibition (% TGI) (HS746T tumors; 75 mg/kg oral BID, day 15): 35.7%
tumor growth inhibition, mixed effect linear model of the tumor volumes on the last day of study (HS746T tumors; 75 mg/kg oral BID): 60.3%
% Tumor Growth Inhibition (% TGI) (HS746T tumors; 100 mg/kg oral BID, day 3): 65.8%
% Tumor Growth Inhibition (% TGI) (HS746T tumors; 100 mg/kg oral BID, day 5): 56.2%
% Tumor Growth Inhibition (% TGI) (HS746T tumors; 100 mg/kg oral BID, day 8): 57.7%
% Tumor Growth Inhibition (% TGI) (HS746T tumors; 100 mg/kg oral BID, day 10): 59.4%
% Tumor Growth Inhibition (% TGI) (HS746T tumors; 100 mg/kg oral BID, day 12): 49.3%
% Tumor Growth Inhibition (% TGI) (HS746T tumors; 100 mg/kg oral BID, day 15): 52.4%
tumor growth inhibition, mixed effect linear model of the tumor volumes on the last day of study (HS746T tumors; 100 mg/kg oral BID): 71.2%
% Tumor Growth Inhibition (% TGI) (HS746T tumors; 150 mg/kg oral BID, day 3): 98.3%
% Tumor Growth Inhibition (% TGI) (HS746T tumors; 150 mg/kg oral BID, day 5): 93.1%
% Tumor Growth Inhibition (% TGI) (HS746T tumors; 150 mg/kg oral BID, day 8): 89.8%
% Tumor Growth Inhibition (% TGI) (HS746T tumors; 150 mg/kg oral BID, day 10): 84.2%
% Tumor Growth Inhibition (% TGI) (HS746T tumors; 150 mg/kg oral BID, day 12): 72.9%
% Tumor Growth Inhibition (% TGI) (HS746T tumors; 150 mg/kg oral BID, day 15): 74.3%
tumor growth inhibition, mixed effect linear model of the tumor volumes on the last day of study (HS746T tumors; 150 mg/kg oral BID): 85.3%
effect on body weight [3]: without any significant effect on body weight
effect on body weight [4]: without any significant effect on body weight
